Reference: ChEMBL document CHEMBL6109155, “Discovery of Phenylacylpiperidine as Novel sEH Inhibitors through Scaffold Hopping of Natural Stilbene” (J Med Chem, 2025)
Calls of active or inactive are those of the source. The calls are words filed in the database; no cut-off is given here.

Tests used:
Mus musculus [1] = test: Anti-inflammatory activity in BALB/c mouse model of carrageenan-induced paw edema assessed as inhibition of paw swelling at 20 mg/kg, po measured for 0.5 hrs relative to control; type: functional; details: Mus musculus, BALB/c
Mus musculus [2] = test: Anti-inflammatory activity in BALB/c mouse model of carrageenan-induced paw edema assessed as inhibition of paw swelling at 20 mg/kg, po measured after 6 hrs relative to control; type: functional
Mus musculus [3] = test: Anti-inflammatory activity in BALB/c mouse model of carrageenan-induced paw edema assessed as increase in plasma 8,9-EET levels at 10 mg/kg, po measured after 6 hrs relative to control; type: functional
RAW264.7 = test: Anti-inflammatory activity in LPS-indeced mouse RAW264.7 cells assessed as reduction in IL-1beta level at 10 uM preincubated for 1 hr followed by LPS addition measured after 24 hrs by ELISA; type: functional, cell-based
Rattus norvegicus [4] = test: Anti-inflammatory activity in Sprague-Dawley rat model of CFA-induced rheumatoid arthritis assessed as decrease in joint deformity at 10 mg/kg, po administered daily measured after 7 days; type: functional, organism-based; details: time 7.0 day
Rattus norvegicus [5] = test: Anti-inflammatory activity in Sprague-Dawley rat model of CFA-induced rheumatoid arthritis assessed as decrease in arthritis index at 10 mg/kg, po administered daily measured for 7 to 19 days; type: functional, organism-based; details: time 7-19 day
Rattus norvegicus [6] = test: Anti-inflammatory activity in Sprague-Dawley rat model of CFA-induced rheumatoid arthritis assessed as smooth cartilage surface at 10 mg/kg, po administered daily measured after 19 days by H and E staining based analysis; type: functional, organism-based; details: time 19.0 day
Rattus norvegicus [7] = test: Anti-inflammatory activity in Sprague-Dawley rat model of CFA-induced rheumatoid arthritis assessed as […] in connective tissue proliferation in synovial tissue at 10 mg/kg, po administered daily measured after 19 days by H and E staining based analysis; type: functional, organism-based; details: time 19.0 day
Rattus norvegicus [8] = test: Anti-inflammatory activity in Sprague-Dawley rat model of CFA-induced rheumatoid arthritis assessed as increase in ratio of plasma 11,12-EET to DHET levels at 10 mg/kg, po administered daily measured after 19 days relative to control; type: functional; details: time 19 day
Rattus norvegicus [9] = test: Anti-inflammatory activity in Sprague-Dawley rat model of CFA-induced rheumatoid arthritis assessed as increase in ratio of plasma 14,15-EET to DHET levels at 10 mg/kg, po administered daily measured after 19 days relative to control; type: functional; details: time 19 day
Mus musculus [10] = test: Anti-inflammatory activity in CD-1 mouse model of cerulein-induced acute pancreatitis assessed as decrease in plasma IL-6 level at 10 mg/kg, ip drug administered at 30 mins and 2.5 hrs post-first cerulein injection and measured after 6 hrs post-first cerulein injection; type: functional, organism-based; details: time 3.5-5.5 hrs
Mus musculus [11] = test: Anti-inflammatory activity in CD-1 mouse model of cerulein-induced acute pancreatitis assessed as increase in ratio of plasma 8,9-EET/DHET level at 10 mg/kg, ip drug administered at 30 mins and 2.5 hrs post-first cerulein injection and measured after 6 hrs post-first cerulein injection (reference value: 69.8 to 77.3 %); type: functional; details: time 3.5-5.5 hrs
Mus musculus [12] = test: Anti-inflammatory activity in CD-1 mouse model of cerulein-induced acute pancreatitis assessed as increase in ratio of plasma 11,12-EET/DHET level at 10 mg/kg, ip drug administered at 30 mins and 2.5 hrs post-first cerulein injection and measured after 6 hrs post-first cerulein injection (reference value: 69.8 to 77.3 %); type: functional; details: time 3.5-5.5 hrs
[13] = In vivo inhibition of pancreatic sEH in CD-1 mouse model of cerulein-induced acute pancreatitis 10 mg/kg, ip drug administered at 30 mins and 2.5 hrs post-first cerulein injection and measured after 6 hrs post-first cerulein injection; type: functional; details: time 3.5-5.5 hrs
Cytochrome P450 1A2 = biological target: T1, Cytochrome P450 1A2 (Homo sapiens, UniProt P05177); test: Inhibition of CYP1A2 in human liver microsomes preincubated for 10 mins followed by NADPH addition measured after 3.5 mins by LC-MS/MS analysis; type: ADME, Microsome
T1 sequence (P05177 whole entry): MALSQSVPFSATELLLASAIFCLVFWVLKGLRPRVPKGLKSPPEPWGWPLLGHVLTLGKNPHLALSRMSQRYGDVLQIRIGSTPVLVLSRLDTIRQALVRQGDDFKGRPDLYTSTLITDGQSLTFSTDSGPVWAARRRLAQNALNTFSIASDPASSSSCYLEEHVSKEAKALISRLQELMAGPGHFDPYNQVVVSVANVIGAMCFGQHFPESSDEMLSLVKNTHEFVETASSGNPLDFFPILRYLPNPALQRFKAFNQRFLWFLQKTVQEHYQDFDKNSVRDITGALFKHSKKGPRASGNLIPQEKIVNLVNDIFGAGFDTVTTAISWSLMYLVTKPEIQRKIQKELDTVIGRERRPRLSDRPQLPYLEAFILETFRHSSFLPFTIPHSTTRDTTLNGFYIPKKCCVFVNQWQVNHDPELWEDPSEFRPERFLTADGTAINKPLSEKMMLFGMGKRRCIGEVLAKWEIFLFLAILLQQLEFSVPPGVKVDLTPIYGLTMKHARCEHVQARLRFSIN

Cytochrome P450 2D6 = Cytochrome P450 2D6 (Homo sapiens, UniProt P10635); test: Inhibition of CYP2D6 in human liver microsomes preincubated for 10 mins followed by NADPH addition measured after 3.5 mins by LC-MS/MS analysis; type: ADME, Microsome
Cytochrome P450 3A4 = Cytochrome P450 3A4 (Homo sapiens, UniProt P08684); test: Inhibition of CYP3A4 in human liver microsomes preincubated for 10 mins followed by NADPH addition measured after 3.5 mins by LC-MS/MS analysis; type: ADME, Microsome
[14] = Cmax in plasma of C57BL/6J mouse at 20 mg/kg, po measured for 24 hrs; type: ADME, organism-based
[15] = AUC (0 to 24 hrs) in liver of C57BL/6J mouse at 20 mg/kg, po measured for 24 hrs; type: ADME, organism-based
[16] = Ratio of Cmax in liver to plasma in C57BL/6J mouse at 20 mg/kg, po measured for 24 hrs; type: ADME, organism-based; details: liver and plasma
[17] = Ratio of AUC (0 to 24 hrs) in liver to plasma in C57BL/6J mouse at 20 mg/kg, po measured for 24 hrs; type: ADME, organism-based; details: liver and plasma, read-out: Ratio AUC
[18] = AUC (0 to 24 hrs) in brain of C57BL/6J mouse at 20 mg/kg, po measured for 24 hrs; type: ADME, organism-based
[19] = Ratio of Cmax in brain to plasma in C57BL/6J mouse at 20 mg/kg, po measured for 24 hrs; type: ADME, organism-based; details: brain and plasma
[20] = Cmax in kidney of C57BL/6J mouse at 20 mg/kg, po measured for 24 hrs; type: ADME, organism-based
[21] = AUC (0 to 24 hrs) in kidney of C57BL/6J mouse at 20 mg/kg, po measured for 24 hrs; type: ADME, organism-based
[22] = Half life in Sprague-Dawley rat at 20 mg/kg, po measured for 24 hrs; type: ADME, organism-based; details: in vivo
[23] = Cmax in Sprague-Dawley rat at 20 mg/kg, po measured for 24 hrs; type: ADME, organism-based; details: in vivo
[24] = AUC (0 to 24 hrs) in Sprague-Dawley rat at 20 mg/kg, po measured for 24 hrs; type: ADME, organism-based; details: in vivo
[25] = Volume of distribution in Sprague-Dawley rat at 20 mg/kg, po measured for 24 hrs; type: ADME, organism-based; details: in vivo

Sequence of Cytochrome P450 3A4 (P08684 whole entry): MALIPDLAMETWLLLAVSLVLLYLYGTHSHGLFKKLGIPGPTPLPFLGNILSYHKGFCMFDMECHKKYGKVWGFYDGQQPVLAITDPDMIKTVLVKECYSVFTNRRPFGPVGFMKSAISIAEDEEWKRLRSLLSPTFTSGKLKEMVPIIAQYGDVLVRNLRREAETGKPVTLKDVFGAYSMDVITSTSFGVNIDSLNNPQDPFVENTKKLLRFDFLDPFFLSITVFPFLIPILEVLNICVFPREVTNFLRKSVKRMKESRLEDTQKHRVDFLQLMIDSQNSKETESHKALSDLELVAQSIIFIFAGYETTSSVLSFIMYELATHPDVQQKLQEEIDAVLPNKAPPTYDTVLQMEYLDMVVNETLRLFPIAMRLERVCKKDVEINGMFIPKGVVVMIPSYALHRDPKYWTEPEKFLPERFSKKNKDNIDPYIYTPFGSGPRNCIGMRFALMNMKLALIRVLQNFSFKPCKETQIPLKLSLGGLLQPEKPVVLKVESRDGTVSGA
Sequence of Cytochrome P450 2D6 (P10635 whole entry): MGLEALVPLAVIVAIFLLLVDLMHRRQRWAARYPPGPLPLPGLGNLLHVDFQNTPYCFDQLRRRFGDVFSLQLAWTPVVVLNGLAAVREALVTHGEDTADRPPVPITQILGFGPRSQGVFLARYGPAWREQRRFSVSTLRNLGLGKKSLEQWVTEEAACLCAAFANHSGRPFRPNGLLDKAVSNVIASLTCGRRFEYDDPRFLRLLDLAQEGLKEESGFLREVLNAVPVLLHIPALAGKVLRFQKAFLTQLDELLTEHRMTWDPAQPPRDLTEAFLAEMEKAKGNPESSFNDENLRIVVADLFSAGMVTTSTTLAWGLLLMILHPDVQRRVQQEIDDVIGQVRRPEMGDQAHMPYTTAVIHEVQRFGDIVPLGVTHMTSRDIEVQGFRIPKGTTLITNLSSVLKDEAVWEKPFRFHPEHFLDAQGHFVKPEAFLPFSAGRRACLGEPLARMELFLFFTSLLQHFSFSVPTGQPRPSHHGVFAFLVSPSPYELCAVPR

`COc1cc(CC(=O)N2CCC(NC(=O)NCc3ccc(OC(F)(F)F)cc3)CC2)cc(OC)c1` showed an inhibition in vivo at 20 mg/kg (Mus musculus [1]) of 29.5%, an inhibition in vivo at 20 mg/kg (Mus musculus [2]) of 38.1% and an Activity (Mus musculus [3]) of 28.7%. For the same compound, the Activity (RAW264.7) was “Active”, the Activity (Rattus norvegicus [4]) was “Active” and the Activity (Rattus norvegicus [5]) was “Active”. For the same compound, the Activity (Rattus norvegicus [6]) was “Active”, the Activity (Rattus norvegicus [7]) was “Active; Minimal Connective Tissue Proliferation Was Observed” and the Activity (Rattus norvegicus [8]) was 111%. The Activity (Rattus norvegicus [9]) was 463%, the Activity (Mus musculus [10]) was “Active” and the Activity (Mus musculus [11]) was 558%. It also gave an Activity (Mus musculus [12]) of 552%, an inhibition in vivo at 10 mg/kg [13] of 44.7% and an IC50 (Cytochrome P450 1A2) of over 50 µM. For the same compound, the IC50 (Cytochrome P450 2D6) was 46.8 µM, the IC50 (Cytochrome P450 3A4) was 22.9 µM and the Cmax [14] was 482 ng/mL. The AUC(0-t) at 24 h [15] was 27100 ng·h/mL, the Kp at 24 h [16] was 6.71 and the Kp at 24 h [17] was 50.9. It also gave an AUC(0-t) at 24 h [18] of 11 ng·h/mL, a Kp at 24 h [19] of 0.06 and a Cmax [20] of 4540 ng/g. For the same compound, the AUC(0-t) at 24 h [21] was 17200 ng·h/mL, the half-life [22] was 1.89 h and the Cmax [23] was 359 ng/mL. It also gave an AUC(0-t) at 24 h [24] of 725 ng·h/mL and a Vd [25] of 74.6 L/kg.
